Measured values: ChEMBL document CHEMBL1201862, “PubChem BioAssay data set” (2004)
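Grown in 96-well plates, cells were treated for 48 hours with each compound at five concentrations. Insufficient inhibition: endpoint recorded as highest concentration tested. GI50 = concentration required for 50% inhibition of growth.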 Calls of active or inactive are those of the source. Rule as the data show it: active = GI50 up to about 1.1 µM and inactive = higher.

What was measured:
Test in all cases: NCI-60 cell line screen, 48 h
CCRF-CEM = test system: CCRF-CEM
SNB-19 = test system: SNB-19
NCI-H23 = test system: NCI-H23
HCT-116 = test system: HCT-116
SF-539 = test system: SF-539
ACHN = test system: ACHN
Malme-3M = test system: Malme-3M
OVCAR-8 = test system: OVCAR-8
NCI-H460 = test system: NCI-H460
SN12C = test system: SN12C
SR = test system: SR
LOX IMVI = test system: LOX IMVI
786-0 = test system: 786-0
U-251 = test system: U-251
NCI-H522 = test system: NCI-H522
SK-MEL-5 = test system: SK-MEL-5
NCI-H226 = test system: NCI-H226
CAKI-1 = test system: CAKI-1
HCT-15 = test system: HCT-15
SK-OV-3 = test system: SK-OV-3

Measured: GI50

CC1(C)CC(=O)c2c(N)n[nH]c2C1
inactive: CCRF-CEM > 100 µM | SNB-19 > 100 µM | NCI-H23 > 100 µM | HCT-116 > 100 µM | SF-539 > 100 µM | ACHN > 100 µM | Malme-3M > 100 µM | OVCAR-8 > 100 µM | NCI-H460 > 100 µM | SN12C > 100 µM | SR > 100 µM | LOX IMVI > 100 µM | 786-0 > 100 µM | U-251 > 100 µM | NCI-H522 > 100 µM | SK-MEL-5 > 100 µM | NCI-H226 > 100 µM | CAKI-1 > 100 µM

Cc1cc(C(=O)NCCN(C)C)c2nc3ccccc3nc2c1
inactive: SNB-19 6.79 µM | NCI-H23 5.27 µM | HCT-116 1.48 µM | SK-OV-3 11.7 µM | SF-539 4.31 µM | ACHN 2.22 µM | Malme-3M 3.21 µM | OVCAR-8 4.81 µM | SN12C 3.45 µM | LOX IMVI 2.22 µM | 786-0 7.8 µM | U-251 5.82 µM | NCI-H522 16.6 µM | SK-MEL-5 4.44 µM | NCI-H226 3.44 µM
2.9 µM: HCT-15
active: SR 0.453 µM

NS(=O)(=O)c1nnc(NC(=O)CCC(=O)O)s1
inactive: SNB-19 > 100 µM | NCI-H23 > 100 µM | HCT-116 > 100 µM | SK-OV-3 > 100 µM | SF-539 > 100 µM | ACHN > 100 µM | Malme-3M > 100 µM | OVCAR-8 > 100 µM | NCI-H460 > 100 µM | SN12C > 100 µM | SR > 100 µM | LOX IMVI > 100 µM | 786-0 > 100 µM | U-251 > 100 µM | NCI-H522 > 100 µM | SK-MEL-5 > 100 µM | NCI-H226 > 100 µM | CAKI-1 > 100 µM
> 100 µM: HCT-15

Cc1cccc(CC(C)(C)C)c1NC(=O)C(=O)C(C(=O)c1ccc2ccccc2c1)C1OC(=O)c2ccccc21 (stereo not given)
15.3 µM: HCT-15
inactive: SNB-19 10.6 µM | NCI-H23 6.35 µM | HCT-116 6.73 µM | SK-OV-3 26.5 µM | SF-539 2.95 µM | ACHN 18 µM | Malme-3M 10.8 µM | OVCAR-8 6.58 µM | NCI-H460 4.13 µM | SN12C 15.8 µM | SR 3.72 µM | LOX IMVI 11.5 µM | 786-0 7.23 µM | U-251 4.79 µM | NCI-H522 9.53 µM | SK-MEL-5 13.1 µM | NCI-H226 2.4 µM | CAKI-1 19.2 µM

Cc1cccc2c1Oc1ncccc1C2NC(=O)CN(C)C (stereo not given)
inactive: CCRF-CEM > 10 µM | SNB-19 > 10 µM | NCI-H23 > 10 µM | SK-OV-3 > 10 µM | SF-539 > 10 µM | ACHN > 10 µM | Malme-3M > 10 µM | OVCAR-8 > 10 µM | NCI-H460 > 10 µM | SN12C > 10 µM | SR > 10 µM | LOX IMVI > 10 µM | 786-0 > 10 µM | U-251 > 10 µM | NCI-H522 > 10 µM | NCI-H226 > 10 µM
> 10 µM: HCT-15

CCCN(CCC)C1CCc2c(ccc3cc[nH]c23)C1 (stereo not given)
48.1 µM: HCT-15
inactive: CCRF-CEM 26.3 µM | SNB-19 > 100 µM | NCI-H23 > 100 µM | HCT-116 66.8 µM | SK-OV-3 > 100 µM | SF-539 > 100 µM | ACHN > 100 µM | Malme-3M 58.1 µM | OVCAR-8 > 100 µM | NCI-H460 72.3 µM | SN12C > 100 µM | SR 22.9 µM | 786-0 > 100 µM | U-251 > 100 µM | NCI-H522 > 100 µM | SK-MEL-5 20.7 µM | NCI-H226 > 100 µM | CAKI-1 > 100 µM

CN(CCc1ccc(Cl)c(Cl)c1)[C@H]1CCCC[C@H]1N1CCCC1
inactive: SNB-19 > 100 µM | NCI-H23 > 100 µM | HCT-116 > 100 µM | SK-OV-3 > 100 µM | ACHN > 100 µM | Malme-3M > 100 µM | OVCAR-8 > 100 µM | SN12C > 100 µM | SR > 100 µM | LOX IMVI > 100 µM | 786-0 > 100 µM | U-251 > 100 µM | NCI-H522 > 100 µM | SK-MEL-5 > 100 µM | NCI-H226 > 100 µM | CAKI-1 > 100 µM
> 100 µM: HCT-15

CN(C(=O)c1ccncc1)c1ccccc1
> 100 µM: HCT-15
inactive: SNB-19 > 100 µM | NCI-H23 > 100 µM | HCT-116 > 100 µM | SK-OV-3 > 100 µM | SF-539 > 100 µM | ACHN > 100 µM | Malme-3M > 100 µM | OVCAR-8 > 100 µM | NCI-H460 > 100 µM | SN12C > 100 µM | SR > 100 µM | LOX IMVI > 100 µM | 786-0 > 100 µM | U-251 > 100 µM | NCI-H522 > 100 µM | SK-MEL-5 > 100 µM | NCI-H226 > 100 µM | CAKI-1 > 100 µM
